Data reported in PMC6235670, “An mTOR Signaling Modulator Suppressed Heterotopic Ossification of Fibrodysplasia Ossificans Progressiva” (Stem Cell Reports, 2018).
Where two headings read alike, the source gives them in different places.

What was measured:
ATDC5/FOP-ACVR1 cells [1] = assay: AlamarBlue viability assay in ATDC5/FOP-ACVR1; details: for Viability (%) @10 μM: AlamarBlue, ATDC5/FOP-ACVR1, 10 μM
Experimental: (§1) Generation of ATDC5 stably expressing ACVR1. WT - or FOP-ACVR1 was inserted into doxycycline (Dox)- […]
(§2) (KW111/WT-ACVR1 or KW111/FOP-ACVR1). KW111/WT-ACVR1 or KW111/FOP-ACVR1 and PBaseII […]
(§3) FuGeneHD® (Promega) according to the manufacturer’s protocol, and the neomycin- resistant population (500 µg/mL) was selected. Further selection was performed by selecting a mCherry high positive population (< 5%) after six hours of Dox treatment, sorting it with fluorescent-activated cell sorting (FACS) using AriaII (BD) according to the manufacturer’s protocol, and designating it as ATDC5/WT-ACVR1 or ATDC5/FOP-ACVR1.
(§4) KW111 included PB, active transposable PB elements; TRE-mCMVP, Tetracycline Response Element and a minimal CMV promoter; rtTA, reverse tetracycline-controlled transactivator. PBaseII was an expression plasmid vector containing the PB transposase cDNA with optimized codon usage to human under the control […]
(§5) HTS campaign and follow-up screens. ATDC5/FOP-ACVR1 cells were plated in 96-well white plates (2,000 cells/well/40 µ L, Corning) in DMEM/F-12 supplemented with 5% (v/v) FBS. […]
(§6) 37 °C under 5% CO2. After 3 days incubation, Alkaline Phosphatase activity (ALP) or AlamarBlue activity was measured using Amplite™ Colorimetric Alkaline Phosphatase Assay Kit (AAT Bioquest) or alamarBlue® Cell Viability Reagent (Thermo Fisher Scientific) according to the manufacturer’s protocol, respectively. T h e […]
(§7) was measured on POWERSCAN4 (DS Pharma Biomedical) or EnVision® Multilabel Reader (PerkinElmer).
(§8) Inhibitory effects of the screened compounds are given as percent inhibition, which was calculated using the following equation: (1-([Abs of compound] - [Abs of Min])/([Abs of Max] - [Abs of Min]))× 100, where [Abs of Max] and [Abs of Min] are the mean Abs of DMSO control and 1 µM DMH-1, respectively. The Z’ factor, which is widely used as a measure of the assay quality of each plate, was calculated using the following equation: Z’ factor = 1 - 3 × ([SD of Max] + [SD of Min])/([Abs of Max] - [Abs of Min]) (SI Appendix, Fig.
(§9) The S/B (signal-to-background) ratio was calculated using the following equation: ([Abs of Max]/[Abs of Min]) (SI Appendix, Fig. S3B).
(§10) Using ATDC5/FOP-ACVR1 cells, we performed a first screening (n=2; test compounds = 1 µM, Fig. […]

ATDC5/FOP-ACVR1 cells [2] = assay: ALP assay (HTS and dose-response) in ATDC5/FOP-ACVR1; assay type: cell-based, mouse; details: same protocol as HTS (72 h)
[3] = AlamarBlue viability assay in ATDC5/FOP-ACVR1; details: mouse, ATDC5 cells stably expressing FOP-ACVR1 (ATDC5/FOP-ACVR1)
Experimental: as §1, §2, §3, §4, §5, §6, §7, §8, §9, §10

FOP-iMSCs [4] = assay: 2D chondrogenic induction of FOP-iMSCs with activin A (GAG, Alcian blue); assay type: cell-based, human; details: activin A, 7 days; for effect on GAG in the chondrogenesis of FOP-iMSCs (ERBB2 kinase inhibitors): 100 nM and 1 µM
mTOR signaling (p-S6) = assay: p-S6 western blotting during chondrogenic induction of FOP-iMSCs with activin A; assay type: cell-based, human; details: 1 μM
Experimental: Western blotting. SDS- PAGE and blotting with whole-cell lysates were performed by standard procedures.
Protein bands were detected with ECL Prime Western Blotting Detection Reagent (GE Healthcare) and visualized using BIO-RAD Molecular Imager® Chemi-DocTM XRS+ with Image LabTM software (Bio-Rad).
All data (relative intensity) were corrected by β-actin.
Antibodies for western blotting and immunostaining.
N ame Company Cat. No Concentration
Human Activin RIA/ALK-2 Antibody R&D Systems) AF637 1:100
Anti-human Vimentin antibody Abcam ab16700 1:40
Collagen I Antibody Novus NB600- 1:100
Anti-rabbit IgG, HRP-linked Antibody Cell Signaling #7074 1:10000 […]
2nd Goat anti-Rabbit IgG (H+L) Secondary Antibody, Invitrogen A-11008 1:100 antibody Alexa Fluor® 488 conjugate
Goat anti-Rabbit IgG (H+L) Secondary Antibody, Invitrogen A-21428 1:500

FOP-iMSCs [5] = assay: Microarray / pathway analysis of activin A-induced chondrogenesis of FOP-iMSCs; assay type: cell-based, human; details: 100 nM, 100 ng/mL Activin-A, 7 days, microarray, N = 1
Experimental: Microarray experiments. 2D chondrogenic induction was performed in FOP-iMSCs stimulated with or without 100 ng/mL Activin-A, TAK 165, CP-724714 and Lapatinib. Seven days after incubation, mRNA was extracted. RNA was reverse transcribed, biotin-labeled and hybridized to GeneChip Human Gene 1.0 ST Expression Array, which was subsequently washed and scanned according to the manufacturer’s instructions (Affymetrix). Raw CEL files were imported into GeneSpring GX 12.6.1 software (Agilent Technologies), and expression values were calculated with the RMA16 algorithm. Pathway analysis was performed by Ingenuity pathway analysis (Qiagen). […]

ATDC5/FOP-ACVR1 cells [6] = assay: ALP assay (HTS and dose-response) in ATDC5/FOP-ACVR1; assay type: cell-based, mouse
Experimental: ATDC5/FOP-ACVR1 cells were plated in 96-well white plates (2,000 cells/well/40 μL, Corning) in DMEM/F-12 supplemented with 5% (v/v) FBS. Two hours after incubation at 37°C under 5% CO2, 10 μL of test compounds (final 1 μM) was added, and the assay plates were incubated at 37°C under 5% CO2. After 3 days of incubation, ALP activity was measured using an Amplite Colorimetric Alkaline Phosphatase Assay Kit (AAT Bioquest) according to the manufacturer's protocol.
as §1, §2
FuGeneHD® (Promega) according to the manufacturer’s protocol, and the neomycin- resistant population (500 µg/mL) was selected. […]
HTS campaign and follow-up screens. […] After 3 days incubation, Alkaline Phosphatase activity (ALP) or AlamarBlue activity was measured using Amplite™ Colorimetric Alkaline Phosphatase Assay Kit (AAT Bioquest) or alamarBlue® Cell Viability Reagent (Thermo Fisher Scientific) according to the manufacturer’s protocol, respectively. […]
as §7, §8
The S/B (signal-to-background) ratio was calculated using the following equation: ([Abs of Max]/[Abs of Min]) (SI Appendix, Fig. S3B). […]

## CC(C)(C)n1nc(-c2cccc3ccccc23)c2c(N)ncnc21 [1-Naphthyl PP1]
ATDC5/FOP-ACVR1 cells [1]
  Viability (%) @10 μM: 83%
ATDC5/FOP-ACVR1 cells [2]
  IC50: 12200 nM

## COc1ccc(-c2ccc3c(N4CCOC[C@@H]4C)nc(N4CCOC[C@@H]4C)nc3n2)cc1CO [AZD8055]
[3]
  viability at 3 days, 10 µM: 25%
ATDC5/FOP-ACVR1 cells [2]; Mus musculus
  IC50: 77 nM

## C=C1/C(=C\C=C2/CCC[C@]3(C)[C@@H]([C@H](C)CCCC(C)C)CC[C@@H]23)C[C@@H](O)C[C@@H]1O [Alfacalcidol]
[3]
  viability at 3 days, 10 µM: 54%
ATDC5/FOP-ACVR1 cells [2]; Mus musculus
  IC50: 526 nM

## Cn1c(=O)n(-c2ccc(C(C)(C)C#N)cc2)c2c3cc(-c4cnc5ccccc5c4)ccc3ncc21 [BEZ235]
[3]
  viability at 3 days, 10 µM: 21%
ATDC5/FOP-ACVR1 cells [2]; Mus musculus
  IC50: 87 nM

## Cc1ccc(-n2nc(C(C)(C)C)cc2NC(=O)Nc2ccc(OCCN3CCOCC3)c3ccccc23)cc1 [BIRB 796]
[3]
  viability at 3 days, 10 µM: 99%
ATDC5/FOP-ACVR1 cells [2]; Mus musculus
  IC50: 9 nM

## COCC(=O)NC/C=C/c1ccc2ncnc(Nc3ccc(Oc4ccc(C)nc4)c(C)c3)c2c1 [CP-724714]
FOP-iMSCs [4]
  effect on GAG in the chondrogenesis of FOP-iMSCs (ERBB2 kinase inhibitors): no effect
mTOR signaling (p-S6); 24 hr
  p-S6 after 24-hr stimulation: no effects
mTOR signaling (p-S6); 7 days
  p-S6 after 7 days of stimulation: not
FOP-iMSCs [5]
  ADAMTS5 expression ratio to the TAK 165-treated group: 3.1
  BMP4 expression ratio to the TAK 165-treated group: 5.2
  DKK1 expression ratio to the TAK 165-treated group: 0.2
  FOS expression ratio to the TAK 165-treated group: 3.2
  FRZB expression ratio to the TAK 165-treated group: 3.6
  FZD3 expression ratio to the TAK 165-treated group: 0.3
  ITGA3 expression ratio to the TAK 165-treated group: 3.9
  ITGB3 expression ratio to the TAK 165-treated group: 3.3
  MMP1 expression ratio to the TAK 165-treated group: 11.5
  MMP13 expression ratio to the TAK 165-treated group: 5.4
  PIK3R3 expression ratio to the TAK 165-treated group: 0.4
  SPP1 expression ratio to the TAK 165-treated group: 4.4
  TNFRSF11B expression ratio to the TAK 165-treated group: 3.4
  WIF1 expression ratio to the TAK 165-treated group: 0.1
  WNT16 expression ratio to the TAK 165-treated group: 3.0

## C=C1/C(=C\C=C2/CCC[C@]3(C)[C@@H]([C@H](C)/C=C/[C@@H](O)C4CC4)CC[C@@H]23)C[C@@H](O)C[C@@H]1O [Calcipotriol]
[3]
  viability at 3 days, 10 µM: 80%
ATDC5/FOP-ACVR1 cells [2]; Mus musculus
  IC50: 0.3 nM

## C=C1/C(=C\C=C2/CCC[C@]3(C)[C@@H]([C@H](C)CCCC(C)(C)O)CC[C@@H]23)C[C@@H](O)C[C@@H]1O [Calcitriol]
ATDC5/FOP-ACVR1 cells [6]; Mus musculus, 72 h, read-out: IC50 (ALP assay)
  IC50: 0.4 nM
[3]
  viability at 3 days, 10 µM: 81%

## CC(C)Oc1ccc(-c2cnc3c(-c4ccnc5ccccc45)cnn3c2)cc1 [DMH-1]
ATDC5/FOP-ACVR1 cells [6]; 72 hr after Dox and compound, without BMP stimulation
  ALP activity of ATDC5/FOP-ACVR1: inhibited
ATDC5/FOP-ACVR1 cells [1]; 72 hr after Dox and compound
  viability (AlamarBlue) of ATDC5/FOP-ACVR1: not
ATDC5/FOP-ACVR1 cells [1]
  Viability (%) @10 μM: 92%
ATDC5/FOP-ACVR1 cells [2]
  IC50: 21 nM

## CC(C)(C)Cn1c(N)nc2ccc(-c3[nH]c(C(C)(C)C)nc3-c3ccc(F)cc3)nc21 [LY2228820]
[3]
  viability at 3 days, 10 µM: 75%
ATDC5/FOP-ACVR1 cells [2]; Mus musculus
  IC50: 11 nM

## Nc1ncnc2c1c(-c1cccc(OCc3ccccc3)c1)cn2C1CC(CN2CCCC2)C1 (centres unmarked) [NVP-ADW742]
ATDC5/FOP-ACVR1 cells [1]
  Viability (%) @10 μM: -1%
ATDC5/FOP-ACVR1 cells [2]
  IC50: 6570 nM

## CCc1c2c(nc3ccc(O)cc13)-c1cc3c(c(=O)n1C2)COC(=O)[C@]3(O)CC [SN 38]
ATDC5/FOP-ACVR1 cells [1]
  Viability (%) @10 μM: 17%
ATDC5/FOP-ACVR1 cells [2]
  IC50: 98 nM

## CS(=O)(=O)CCNCc1ccc(-c2ccc3ncnc(Nc4ccc(OCc5cccc(F)c5)c(Cl)c4)c3c2)o1 [lapatinib]
FOP-iMSCs [4]
  effect on GAG in the chondrogenesis of FOP-iMSCs (ERBB2 kinase inhibitors): no effect
FOP-iMSCs [5]
  ADAMTS5 expression ratio to the TAK 165-treated group: 2.1
  BMP4 expression ratio to the TAK 165-treated group: 0.4
  DKK1 expression ratio to the TAK 165-treated group: 2.1
  FOS expression ratio to the TAK 165-treated group: 2.4
  FRZB expression ratio to the TAK 165-treated group: 3.0
  FZD3 expression ratio to the TAK 165-treated group: 0.4
  ITGA3 expression ratio to the TAK 165-treated group: 2.5
  ITGB3 expression ratio to the TAK 165-treated group: 3.6
  MMP1 expression ratio to the TAK 165-treated group: 3.0
  MMP13 expression ratio to the TAK 165-treated group: 6.9
  PIK3R3 expression ratio to the TAK 165-treated group: 2.1
  SPP1 expression ratio to the TAK 165-treated group: 3.7
  TNFRSF11B expression ratio to the TAK 165-treated group: 0.5
  WIF1 expression ratio to the TAK 165-treated group: 0.1
  WNT16 expression ratio to the TAK 165-treated group: 0.5

## pertuzumab: ERBB2-selective neutralizing antibody
FOP-iMSCs [4]; 1 µg/mL
  effect on GAG in the chondrogenesis of FOP-iMSCs (ERBB2 neutralizing antibodies): no effect
